The text below walks through data of patent publication US20250115926A1, “DEREGULATED DHS AND TYRA ENZYMES OF GRASSES ENABLE EFFICIENT PRODUCTION OF BOTH TYROSINE AND PHENYLALANINE” (Wisconsin Alumni Research Foundation, priority 2023, published 2025).

In general, inhibition refers to the relative decrease from the control value, in per cent. What is called IC50 is the point on the concentration scale where inhibition reaches its midpoint. One may read the Ki as the equilibrium dissociation constant of an inhibitor or competing ligand from its target.

Assay [1] addresses Brachypodium distachyon BdDHS1b, SEQ ID NO: 3, recombinant (Brachypodium distachyon, UniProt I1H4W3). The assay can be described thus: DHS activity: kinetics and effector inhibition. The settings on record: read-out: inhibition at 0.5 mM. In kind it is biochemical. The source says:
(§1) To examine their functional properties, the recombinant DHS enzymes of Brachypodium were produced and characterized in vitro.
(§2) As recent studies have shown that plant DHS enzymes are feedback-inhibited by multiple effector molecules^15, 16, we tested the effect of AAAs and another 14 related metabolites, including various intermediates of the shikimate pathway and the pathways downstream of AAAs, on Brachypodium DHS enzymes.
(§3) The DHS assay for UHPLC-MS quantification was set up using the same settings as described in the previous paragraph for the UV-based DHS assay, which guaranteed at least 10 minutes of reaction linearity. After a 10-minute incubation, 20 μL of the reactions (out of a total volume of 50 μL) were mixed into 80 μL of methanol, vortexed and transferred to vials for injection. Analysis of DAHP by UHPLC-MS was conducted using the same chromatographic settings as described for the UHPLC-MS analysis of soluble metabolites and compared with an authentic DAHP standard (Sta. Cruz biotechnology, cat. no. sc-216432).

Assay [2] addresses Brachypodium distachyon BdDHS2, SEQ ID NO: 5, recombinant (Brachypodium distachyon, UniProt I1I809). As to the kind of experiment: DHS activity: kinetics and effector inhibition. Format: biochemical. The settings on record: read-out: inhibition at 0.5 mM.
Source text: as §1, §2, §3

The subject of assay [3] is recombinant Sorghum DHS enzymes. The assay can be described thus: DHS activity: effector inhibition. In kind it is biochemical, Sorghum bicolor. The settings on record: 0.5 mM (FIG. 17). The protocol: In contrast, BdDHS1b was not inhibited by arogenate even up to 2.5 mM. In fact, DHS1b activity increased in the presence of high concentrations of arogenate (FIG. 4F), likely due to high concentrations of contaminant NaCl present in the arogenate preparation (FIG. 16). Under acidic conditions, arogenate is known to undergo a spontaneous dehydration and decarboxylation into […]. […] Like in Brachypodium DHS enzymes, 0.5 mM arogenate inhibited SbDHS1a and SbDHS2 at ˜50% and ˜40%, respectively, but had no effect on SbDHS1b.

Assay [4] has as its target Brachypodium distachyon BdDHS1a, SEQ ID NO: 1, recombinant (Brachypodium distachyon, UniProt I1GSB3). As to the kind of experiment: DHS activity: kinetics and effector inhibition. The settings on record: read-out: inhibition at 0.5 mM.
Source text: as §1, §2, §3

In assay [5] the target is T1, Sorghum bicolor SbTyrAnc (non-canonical TyrA), SEQ ID NO: 43, recombinant (Sorghum bicolor, UniProt C5Z447).
T1 construct: from cDNA
T1 sequence (C5Z447 56-382): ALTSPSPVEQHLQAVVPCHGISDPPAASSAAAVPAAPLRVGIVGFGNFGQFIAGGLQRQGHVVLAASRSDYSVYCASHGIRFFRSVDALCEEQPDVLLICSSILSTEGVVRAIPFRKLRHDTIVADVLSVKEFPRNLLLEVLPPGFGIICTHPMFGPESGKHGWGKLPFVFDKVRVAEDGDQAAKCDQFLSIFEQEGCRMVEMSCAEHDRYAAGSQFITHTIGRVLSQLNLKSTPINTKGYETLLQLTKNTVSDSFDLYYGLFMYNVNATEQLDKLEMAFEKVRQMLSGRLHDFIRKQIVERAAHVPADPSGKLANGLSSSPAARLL
As to the kind of experiment: TyrA arogenate dehydrogenase kinetics and tyrosine inhibition (340 nm). In kind it is biochemical. From the text:
(§4) Next, to study the biochemical properties of grass TyrA enzymes, we generated and characterized recombinant purified TyrA proteins from Brachypodium (BdTyrA) and Sorghum (SbTyrA), two distantly related grass species^43, 44. Whereas TyrA enzymes from dicot plants are generally NADP^+-dependent arogenate dehydrogenases^20, 39, 45, except for NADP^+-prephenate dehydrogenases in the legume family^40, 46, previous reports on the substrate preference of grass TyrA enzymes are inconclusive^17, 19. […] NAD^+-prephenate dehydrogenase activity was absent in all cases, ruling out a significant contamination of the enzyme preparations with the TyrA enzyme from E. coli^47.48.

In assay [6] the target is T2, Brachypodium distachyon BdTyrA1, SEQ ID NO: 33, recombinant (Brachypodium distachyon, UniProt A0A2K2DMR9).
T2 construct: from genomic DNA
T2 sequence (A0A2K2DMR9 539-925): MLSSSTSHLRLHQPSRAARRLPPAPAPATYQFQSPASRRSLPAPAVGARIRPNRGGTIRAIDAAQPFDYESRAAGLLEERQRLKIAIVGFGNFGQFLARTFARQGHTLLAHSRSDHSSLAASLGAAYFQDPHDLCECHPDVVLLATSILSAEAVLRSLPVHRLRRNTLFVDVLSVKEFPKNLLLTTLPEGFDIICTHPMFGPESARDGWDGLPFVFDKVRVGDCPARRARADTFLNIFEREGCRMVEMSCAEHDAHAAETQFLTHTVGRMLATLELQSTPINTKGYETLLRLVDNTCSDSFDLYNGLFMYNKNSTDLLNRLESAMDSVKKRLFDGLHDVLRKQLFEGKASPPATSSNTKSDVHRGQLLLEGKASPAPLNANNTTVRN
Described as above. In kind it is biochemical.
Source text: as §4

Assay [7] deals with T3, Sorghum bicolor SbTyrA1, SEQ ID NO: 39, recombinant (Sorghum bicolor, UniProt A0A194YLK4).
T3 construct: from genomic DNA
T3 sequence (A0A194YLK4 475-836): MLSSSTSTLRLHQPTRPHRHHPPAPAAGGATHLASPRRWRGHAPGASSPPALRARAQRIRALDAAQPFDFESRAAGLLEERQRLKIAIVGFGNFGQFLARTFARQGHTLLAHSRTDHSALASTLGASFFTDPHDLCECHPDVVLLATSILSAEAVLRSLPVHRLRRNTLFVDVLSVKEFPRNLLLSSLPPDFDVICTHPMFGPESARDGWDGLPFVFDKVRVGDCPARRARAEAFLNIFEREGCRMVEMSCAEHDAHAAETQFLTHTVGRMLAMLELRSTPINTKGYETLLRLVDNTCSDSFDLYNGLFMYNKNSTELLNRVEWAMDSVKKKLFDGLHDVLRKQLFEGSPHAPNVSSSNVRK
The assay is described as above. Format: biochemical.
Source text: as §4

For assay [8], the system named is grass DHS enzymes. As to the kind of experiment: DHS activity: effector inhibition. Format: biochemical. The settings on record: 0.5 mM (FIGS. 4, 15, 17). The protocol: as §2, §3

Chain of Brachypodium distachyon BdDHS1a, SEQ ID NO: 1, recombinant (I1GSB3 46-537): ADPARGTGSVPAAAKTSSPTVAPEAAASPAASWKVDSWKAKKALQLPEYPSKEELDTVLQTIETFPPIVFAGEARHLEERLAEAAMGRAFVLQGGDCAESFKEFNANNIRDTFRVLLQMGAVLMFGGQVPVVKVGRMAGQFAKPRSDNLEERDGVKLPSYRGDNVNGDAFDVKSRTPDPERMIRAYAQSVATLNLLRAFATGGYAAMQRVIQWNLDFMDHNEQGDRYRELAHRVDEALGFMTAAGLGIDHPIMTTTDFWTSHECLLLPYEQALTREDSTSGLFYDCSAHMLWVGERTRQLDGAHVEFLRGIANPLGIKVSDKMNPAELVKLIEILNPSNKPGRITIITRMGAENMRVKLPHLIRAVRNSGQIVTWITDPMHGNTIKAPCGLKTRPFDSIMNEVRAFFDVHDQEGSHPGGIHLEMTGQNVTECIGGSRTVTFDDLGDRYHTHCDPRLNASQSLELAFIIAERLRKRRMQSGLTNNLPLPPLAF
Chain of Brachypodium distachyon BdDHS2, SEQ ID NO: 5, recombinant (I1I809 31-503): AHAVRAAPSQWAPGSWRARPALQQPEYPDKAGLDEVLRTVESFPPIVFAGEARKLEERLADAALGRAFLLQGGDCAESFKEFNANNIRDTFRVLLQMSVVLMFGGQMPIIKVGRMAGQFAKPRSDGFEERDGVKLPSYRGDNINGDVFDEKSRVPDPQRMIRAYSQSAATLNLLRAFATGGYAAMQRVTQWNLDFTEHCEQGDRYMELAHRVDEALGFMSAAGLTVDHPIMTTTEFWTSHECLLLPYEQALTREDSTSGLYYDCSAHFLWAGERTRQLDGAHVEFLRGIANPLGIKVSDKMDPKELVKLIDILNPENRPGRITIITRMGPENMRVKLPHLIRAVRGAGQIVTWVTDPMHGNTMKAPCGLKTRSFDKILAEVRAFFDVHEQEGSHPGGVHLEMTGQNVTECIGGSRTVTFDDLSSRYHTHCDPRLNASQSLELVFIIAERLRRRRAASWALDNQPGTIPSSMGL
Chain of Brachypodium distachyon BdDHS1b, SEQ ID NO: 3, recombinant (I1H4W3 37-542): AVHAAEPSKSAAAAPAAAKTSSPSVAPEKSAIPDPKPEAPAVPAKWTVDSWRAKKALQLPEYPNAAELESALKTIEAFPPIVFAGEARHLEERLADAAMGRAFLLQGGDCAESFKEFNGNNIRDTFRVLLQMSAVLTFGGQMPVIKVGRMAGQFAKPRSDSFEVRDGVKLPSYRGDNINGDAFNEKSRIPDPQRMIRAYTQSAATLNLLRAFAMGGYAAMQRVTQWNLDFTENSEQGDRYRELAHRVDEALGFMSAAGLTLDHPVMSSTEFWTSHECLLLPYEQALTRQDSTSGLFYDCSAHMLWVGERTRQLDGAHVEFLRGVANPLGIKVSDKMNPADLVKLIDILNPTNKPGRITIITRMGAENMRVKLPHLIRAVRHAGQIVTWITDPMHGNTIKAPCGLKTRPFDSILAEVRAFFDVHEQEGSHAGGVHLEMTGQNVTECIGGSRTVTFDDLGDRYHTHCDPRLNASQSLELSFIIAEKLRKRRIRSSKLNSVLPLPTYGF

On to `N[C@@H](Cc1ccc(O)cc1)C(=O)O` [tyrosine], for which the values for the inhibition at 500 µM in assay [1], in assay [2] and in assay [4] were ~10%, ~10% and ~25%, respectively. Also, the “inhibition at 0.5 mM” value in assay [3] is on record as “no strong inhibition”. The IC50 in assay [5] worked out at 406 ± 85 µM; in assay [6] (IC50 (tyrosine), 0.5 mM arogenate, 1 mM NADP^+) it was 66 ± 2 µM; in assay [7], 71 µM. Besides, the Ki in assay [5] was 137 ± 44 µM; in assay [6], 46 ± 3 µM; in assay [7] it was 53 ± 10 µM. Besides, the “activity at 200 μM of tyrosine” value in assay [6] (200 μM tyrosine) was “fully inactive”. The “mode of feedback inhibition by tyrosine” value in assay [6] (FIG. 12) is recorded as “competitive”. Also, the “effect on grass DHS at 0.5 mM” value in assay [8] is reported as “little effect”.
